Source: ChEMBL document CHEMBL1268847, “Discovery of orally bioavailable imidazo[1,2-a]pyrazine-based Aurora kinase inhibitors” (Bioorg Med Chem Lett, 2010)
In brackets after ≈: the same amount, converted by molar mass.

Tests used:
[1] = target: Tyrosine-protein kinase Lck (Homo sapiens, UniProt P06239); assay: Inhibition of LCK
[2] = Inhibition of Aurora kinase assessed as reduction histone H3 Ser10 phosphorylation by cell based assay
[3] = target: T1, Interleukin-1 receptor-associated kinase 4 (Homo sapiens, UniProt Q9NWZ3); assay: Inhibition of IRK4
T1 sequence (Q9NWZ3 whole entry): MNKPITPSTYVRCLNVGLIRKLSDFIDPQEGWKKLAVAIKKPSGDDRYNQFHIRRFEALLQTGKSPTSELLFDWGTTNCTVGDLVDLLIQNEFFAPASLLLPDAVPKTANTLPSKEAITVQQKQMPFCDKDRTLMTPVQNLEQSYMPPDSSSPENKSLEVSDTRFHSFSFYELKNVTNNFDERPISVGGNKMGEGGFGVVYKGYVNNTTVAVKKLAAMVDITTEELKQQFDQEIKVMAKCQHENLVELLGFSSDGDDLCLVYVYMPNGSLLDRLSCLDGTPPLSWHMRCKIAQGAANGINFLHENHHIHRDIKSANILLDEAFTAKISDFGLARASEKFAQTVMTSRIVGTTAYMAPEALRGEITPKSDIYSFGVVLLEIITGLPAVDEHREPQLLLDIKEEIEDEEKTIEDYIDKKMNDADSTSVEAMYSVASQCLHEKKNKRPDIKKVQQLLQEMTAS

[4] = target: Aurora kinase B (Homo sapiens, UniProt Q96GD4); assay: Inhibition of Aurora B
[5] = target: Vascular endothelial growth factor receptor 2 (Homo sapiens, UniProt P35968); assay: Inhibition of VEGFR2
[6] = target: T2, Aurora kinase A (Homo sapiens, UniProt O14965); assay: Inhibition of Aurora A
T2 sequence (O14965 whole entry): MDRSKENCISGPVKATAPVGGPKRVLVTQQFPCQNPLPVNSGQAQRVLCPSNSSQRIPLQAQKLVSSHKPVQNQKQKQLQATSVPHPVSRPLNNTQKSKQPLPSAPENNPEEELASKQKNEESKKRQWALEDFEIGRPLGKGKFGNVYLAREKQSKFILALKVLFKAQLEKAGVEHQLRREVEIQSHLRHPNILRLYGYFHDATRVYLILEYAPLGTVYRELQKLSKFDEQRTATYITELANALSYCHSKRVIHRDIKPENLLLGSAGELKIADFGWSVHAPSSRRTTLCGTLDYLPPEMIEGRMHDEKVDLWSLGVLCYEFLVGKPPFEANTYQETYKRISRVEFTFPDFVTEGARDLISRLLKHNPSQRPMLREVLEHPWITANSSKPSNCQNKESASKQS

[7] = target: Ribosomal protein S6 kinase alpha-3 (Homo sapiens, UniProt P51812); assay: Inhibition of RSK2
[8] = target: T3, Serine/threonine-protein kinase Chk1 (Homo sapiens, UniProt O14757); assay: Inhibition of CHK1
T3 sequence (O14757 whole entry): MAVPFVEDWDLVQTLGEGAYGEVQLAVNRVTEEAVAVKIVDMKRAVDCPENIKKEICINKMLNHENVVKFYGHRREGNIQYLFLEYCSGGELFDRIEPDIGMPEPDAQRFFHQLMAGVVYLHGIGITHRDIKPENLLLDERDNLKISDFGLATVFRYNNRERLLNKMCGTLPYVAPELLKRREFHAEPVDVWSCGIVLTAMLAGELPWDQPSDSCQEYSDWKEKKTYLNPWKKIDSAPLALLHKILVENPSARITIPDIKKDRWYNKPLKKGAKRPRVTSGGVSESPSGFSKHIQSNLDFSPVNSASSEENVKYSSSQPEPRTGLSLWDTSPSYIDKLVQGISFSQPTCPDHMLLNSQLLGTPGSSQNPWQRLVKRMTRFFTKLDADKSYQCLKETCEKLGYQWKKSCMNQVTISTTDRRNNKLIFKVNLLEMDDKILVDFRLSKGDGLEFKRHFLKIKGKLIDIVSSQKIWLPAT

[9] = AUC (0-6 hrs) in rat at 10 mg/kg, po; type: ADME, organism-based; parameters: time < 6 hr, dose 10 mg/kg, route oral; settings: plasma
[10] = Oral bioavailability in rat at 30 mg/kg, po; type: ADME, organism-based; settings: in vivo
[11] = AUC (0-infinity) in mouse at 3 mg/kg, iv; type: ADME, organism-based; parameters: time infinity, dose 3 mg/kg, route intravenous; settings: plasma
[12] = tested on: Canis familiaris; assay: Volume of distribution at steady state in dog at 1 mg/kg, iv; type: ADME, organism-based, Canis lupus familiaris; parameters: dose 1 mg/kg, route intravenous; settings: in vivo
[13] = Solubility in 20 mM acetate buffer at pH 4.0; type: physicochemical
[14] = tested on: A2780; assay: Antitumor activity against human A2780 cells xenografted in nu/nu mouse assessed as tumor growth inhibition at 45 mg/kg, po bid for 5 days relative to untreated control; type: functional; settings: A2780, 120 h, read-out: TGI
[15] = tested on: Canis familiaris; assay: Oral bioavailability in dog at 10 mg/kg, po; type: ADME, organism-based, Canis lupus familiaris; settings: in vivo
[16] = AUC (0-infinity) in rat at 30 mg/kg, po; type: ADME, organism-based; parameters: time infinity, dose 30 mg/kg, route oral; settings: plasma
[17] = target: Tyrosine-protein kinase JAK2 (Homo sapiens, UniProt O60674); assay: Inhibition of JAK2
[18] = tested on: A2780; assay: Antitumor activity against human A2780 cells xenografted in nu/nu mouse assessed as tumor growth inhibition at 67.5 mg/kg, po bid for 3 days relative to untreated control; type: functional; settings: A2780, 72 h, read-out: TGI
[19] = tested on: A2780; assay: Antitumor activity against human A2780 cells assessed as inhibition of cell survival; type: functional, cell-based
[20] = tested on: A2780; assay: Antitumor activity against human A2780 cells xenografted in nu/nu mouse assessed as tumor growth inhibition at 90 mg/kg, po bid for 3 days relative to untreated control; type: functional; settings: A2780, 72 h, read-out: TGI
[21] = Volume of distribution at steady state in rat at 10 mg/kg, iv; type: ADME, organism-based; parameters: dose 10 mg/kg, route intravenous; settings: in vivo, read-out: Vdss
[22] = tested on: A2780; assay: Antitumor activity against human A2780 cells xenografted in nu/nu mouse assessed as tumor growth inhibition administered twice daily for 3 or 5 days; type: functional, cell-based
[23] = AUC (0-infinity) in rat at 10 mg/kg, iv; type: ADME, organism-based; parameters: time infinity, dose 10 mg/kg, route intravenous; settings: plasma
[24] = Clearance in rat at 10 mg/kg, iv; type: ADME, organism-based; parameters: dose 10 mg/kg, route intravenous; settings: in vivo
[25] = tested on: Canis familiaris; assay: AUC (0-infinity) in dog at 1 mg/kg, iv; type: ADME, organism-based, Canis lupus familiaris, Plasma; parameters: time infinity, dose 1 mg/kg, route intravenous; settings: in vivo
[26] = Oral bioavailability in mouse at 50 mg/kg, po; type: ADME, organism-based; settings: in vivo
[27] = tested on: A2780; assay: Antitumor activity against human A2780 cells assessed as inhibition of cell growth; type: functional, cell-based
[28] = Volume of distribution at steady state in mouse at 3 mg/kg, iv; type: ADME, organism-based; parameters: dose 3 mg/kg, route intravenous; settings: in vivo, read-out: Vdss
[29] = tested on: Canis familiaris; assay: AUC (0-infinity) in dog at 10 mg/kg, po; type: ADME, organism-based, Canis lupus familiaris, Plasma; parameters: time infinity, dose 10 mg/kg, route oral; settings: in vivo
[30] = tested on: Canis familiaris; assay: Half life in dog at 1 mg/kg, iv; type: ADME, organism-based, Canis lupus familiaris; parameters: dose 1 mg/kg, route intravenous; settings: in vivo
[31] = Clearance in mouse at 3 mg/kg, iv; type: ADME, organism-based; parameters: dose 3 mg/kg, route intravenous; settings: in vivo
[32] = Half life in mouse at 3 mg/kg, iv; type: ADME, organism-based; parameters: dose 3 mg/kg, route intravenous; settings: in vivo
[33] = Half life in rat at 10 mg/kg, iv; type: ADME, organism-based; parameters: dose 10 mg/kg, route intravenous; settings: in vivo
[34] = AUC (0-infinity) in mouse at 50 mg/kg, po; type: ADME, organism-based; parameters: time infinity, dose 50 mg/kg, route oral; settings: plasma
[35] = target: Mitogen-activated protein kinase 1 (Homo sapiens, UniProt P28482); assay: Inhibition of ERK2
Mitogen-activated protein kinase 1, sequence (P28482 whole entry): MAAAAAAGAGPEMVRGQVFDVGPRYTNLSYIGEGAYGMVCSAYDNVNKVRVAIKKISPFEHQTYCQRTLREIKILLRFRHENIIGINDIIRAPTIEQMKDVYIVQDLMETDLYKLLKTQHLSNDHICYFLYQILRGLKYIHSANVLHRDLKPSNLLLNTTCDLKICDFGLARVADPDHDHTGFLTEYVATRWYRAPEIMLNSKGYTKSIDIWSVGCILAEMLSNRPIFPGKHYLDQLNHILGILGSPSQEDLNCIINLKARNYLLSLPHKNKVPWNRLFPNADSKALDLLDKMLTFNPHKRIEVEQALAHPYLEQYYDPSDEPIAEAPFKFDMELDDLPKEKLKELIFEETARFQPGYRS

Tyrosine-protein kinase Lck, sequence (P06239 whole entry): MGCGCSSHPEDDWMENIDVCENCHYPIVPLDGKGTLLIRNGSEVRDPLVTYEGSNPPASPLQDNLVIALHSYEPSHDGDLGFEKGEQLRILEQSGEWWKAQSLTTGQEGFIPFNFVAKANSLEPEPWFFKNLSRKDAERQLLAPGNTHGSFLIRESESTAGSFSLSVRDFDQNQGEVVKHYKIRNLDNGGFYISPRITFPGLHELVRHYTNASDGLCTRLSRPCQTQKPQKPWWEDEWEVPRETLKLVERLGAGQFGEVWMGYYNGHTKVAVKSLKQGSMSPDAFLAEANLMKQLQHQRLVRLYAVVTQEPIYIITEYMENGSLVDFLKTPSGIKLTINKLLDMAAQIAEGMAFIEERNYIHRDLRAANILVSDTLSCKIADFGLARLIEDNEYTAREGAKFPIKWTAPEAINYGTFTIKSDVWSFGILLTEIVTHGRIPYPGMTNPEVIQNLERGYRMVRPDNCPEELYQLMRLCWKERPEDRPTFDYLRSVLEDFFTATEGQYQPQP
Aurora kinase B, sequence (Q96GD4 whole entry): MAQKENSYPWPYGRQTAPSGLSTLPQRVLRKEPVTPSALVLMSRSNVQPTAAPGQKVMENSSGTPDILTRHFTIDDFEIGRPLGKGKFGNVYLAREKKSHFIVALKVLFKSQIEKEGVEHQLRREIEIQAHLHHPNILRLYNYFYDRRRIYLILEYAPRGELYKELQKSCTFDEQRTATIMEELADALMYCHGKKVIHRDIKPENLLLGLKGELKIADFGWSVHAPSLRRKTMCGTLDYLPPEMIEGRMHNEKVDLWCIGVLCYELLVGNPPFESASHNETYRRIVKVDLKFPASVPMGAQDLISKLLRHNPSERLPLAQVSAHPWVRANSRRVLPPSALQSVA
Ribosomal protein S6 kinase alpha-3, sequence (P51812 whole entry): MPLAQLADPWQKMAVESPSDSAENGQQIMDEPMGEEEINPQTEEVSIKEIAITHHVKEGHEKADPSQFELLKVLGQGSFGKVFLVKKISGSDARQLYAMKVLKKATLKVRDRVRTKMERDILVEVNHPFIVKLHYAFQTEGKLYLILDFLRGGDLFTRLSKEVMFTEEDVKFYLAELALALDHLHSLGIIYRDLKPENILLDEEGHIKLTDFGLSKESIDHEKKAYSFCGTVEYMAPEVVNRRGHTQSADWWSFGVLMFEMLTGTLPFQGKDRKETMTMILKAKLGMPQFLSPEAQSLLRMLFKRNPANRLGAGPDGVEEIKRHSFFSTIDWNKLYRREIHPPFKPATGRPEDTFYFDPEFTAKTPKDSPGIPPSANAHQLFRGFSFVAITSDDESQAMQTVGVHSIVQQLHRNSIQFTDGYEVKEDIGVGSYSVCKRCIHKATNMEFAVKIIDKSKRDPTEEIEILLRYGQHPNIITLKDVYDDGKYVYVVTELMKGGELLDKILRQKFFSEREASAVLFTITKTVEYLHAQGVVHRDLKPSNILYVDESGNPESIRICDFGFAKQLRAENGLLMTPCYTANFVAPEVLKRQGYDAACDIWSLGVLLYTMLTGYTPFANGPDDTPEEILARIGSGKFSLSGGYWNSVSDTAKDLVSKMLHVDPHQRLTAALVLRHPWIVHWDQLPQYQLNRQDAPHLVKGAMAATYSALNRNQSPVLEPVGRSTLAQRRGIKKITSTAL
Vascular endothelial growth factor receptor 2, sequence (P35968 whole entry): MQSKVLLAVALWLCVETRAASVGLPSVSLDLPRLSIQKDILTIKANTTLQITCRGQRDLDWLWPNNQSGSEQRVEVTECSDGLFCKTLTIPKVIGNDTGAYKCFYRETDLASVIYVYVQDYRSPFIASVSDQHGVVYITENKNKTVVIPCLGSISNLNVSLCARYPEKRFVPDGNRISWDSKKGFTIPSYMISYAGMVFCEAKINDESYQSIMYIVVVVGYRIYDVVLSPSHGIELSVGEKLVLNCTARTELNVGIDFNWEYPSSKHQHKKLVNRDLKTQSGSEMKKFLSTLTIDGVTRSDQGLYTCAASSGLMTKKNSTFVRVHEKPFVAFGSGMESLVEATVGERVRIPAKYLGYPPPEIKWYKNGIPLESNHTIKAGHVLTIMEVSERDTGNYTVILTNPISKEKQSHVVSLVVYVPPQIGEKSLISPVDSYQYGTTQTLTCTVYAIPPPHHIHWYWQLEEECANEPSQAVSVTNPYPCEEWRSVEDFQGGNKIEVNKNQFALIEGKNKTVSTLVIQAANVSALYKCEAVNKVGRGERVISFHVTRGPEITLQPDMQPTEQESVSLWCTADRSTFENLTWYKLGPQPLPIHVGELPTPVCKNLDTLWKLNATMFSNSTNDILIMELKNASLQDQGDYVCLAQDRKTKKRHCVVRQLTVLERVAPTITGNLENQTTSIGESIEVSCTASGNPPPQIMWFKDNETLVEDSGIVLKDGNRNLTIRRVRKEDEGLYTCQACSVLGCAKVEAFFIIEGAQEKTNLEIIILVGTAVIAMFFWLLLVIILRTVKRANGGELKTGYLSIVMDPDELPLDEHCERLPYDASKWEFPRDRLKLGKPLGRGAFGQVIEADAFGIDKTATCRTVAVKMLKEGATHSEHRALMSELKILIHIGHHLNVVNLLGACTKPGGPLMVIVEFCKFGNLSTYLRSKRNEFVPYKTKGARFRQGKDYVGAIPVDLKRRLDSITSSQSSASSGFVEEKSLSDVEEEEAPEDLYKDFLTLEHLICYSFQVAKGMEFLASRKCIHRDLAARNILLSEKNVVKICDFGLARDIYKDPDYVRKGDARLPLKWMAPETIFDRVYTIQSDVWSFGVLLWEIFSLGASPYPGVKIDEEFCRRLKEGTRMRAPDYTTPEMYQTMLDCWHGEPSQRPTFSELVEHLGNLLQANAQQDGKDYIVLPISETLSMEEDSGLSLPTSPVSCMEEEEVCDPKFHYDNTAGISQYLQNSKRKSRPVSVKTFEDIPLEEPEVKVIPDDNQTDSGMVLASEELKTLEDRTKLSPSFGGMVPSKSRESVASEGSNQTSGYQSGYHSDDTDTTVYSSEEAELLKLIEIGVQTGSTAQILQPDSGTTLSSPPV
Tyrosine-protein kinase JAK2, sequence (O60674 whole entry): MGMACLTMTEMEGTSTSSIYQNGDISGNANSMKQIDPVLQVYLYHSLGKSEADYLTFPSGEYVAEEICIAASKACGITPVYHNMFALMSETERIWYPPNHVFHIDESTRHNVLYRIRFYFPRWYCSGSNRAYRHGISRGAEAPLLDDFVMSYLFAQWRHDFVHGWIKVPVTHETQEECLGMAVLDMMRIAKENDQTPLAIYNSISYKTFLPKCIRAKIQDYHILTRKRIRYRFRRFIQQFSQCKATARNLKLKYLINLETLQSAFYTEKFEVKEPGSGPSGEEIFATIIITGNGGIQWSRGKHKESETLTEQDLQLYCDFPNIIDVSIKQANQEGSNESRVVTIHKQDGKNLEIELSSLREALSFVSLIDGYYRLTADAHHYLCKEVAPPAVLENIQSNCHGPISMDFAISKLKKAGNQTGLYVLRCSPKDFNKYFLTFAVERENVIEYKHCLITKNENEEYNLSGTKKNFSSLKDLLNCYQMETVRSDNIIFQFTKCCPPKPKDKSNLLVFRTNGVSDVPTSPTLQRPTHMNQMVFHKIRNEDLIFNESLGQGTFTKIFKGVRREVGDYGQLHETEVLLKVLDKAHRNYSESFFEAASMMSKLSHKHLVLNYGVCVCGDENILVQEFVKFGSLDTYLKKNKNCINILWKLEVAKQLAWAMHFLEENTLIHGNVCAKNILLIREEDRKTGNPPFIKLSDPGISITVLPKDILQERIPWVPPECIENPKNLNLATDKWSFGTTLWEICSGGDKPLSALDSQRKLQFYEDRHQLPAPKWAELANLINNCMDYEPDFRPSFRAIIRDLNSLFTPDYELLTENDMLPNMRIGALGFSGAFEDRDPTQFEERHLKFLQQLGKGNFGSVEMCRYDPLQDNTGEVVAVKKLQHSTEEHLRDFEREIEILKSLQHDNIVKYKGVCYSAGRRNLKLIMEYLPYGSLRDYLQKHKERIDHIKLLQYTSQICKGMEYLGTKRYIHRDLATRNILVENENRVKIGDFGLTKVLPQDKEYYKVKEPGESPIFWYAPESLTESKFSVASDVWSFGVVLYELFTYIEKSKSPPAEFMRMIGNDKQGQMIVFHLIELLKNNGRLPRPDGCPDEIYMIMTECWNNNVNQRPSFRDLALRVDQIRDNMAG

Compound: CCN(Cc1cc(Nc2nc(C)cn3c(-c4cn[nH]c4)cnc23)sn1)C(C)(C)CO
- IC50 [1]: ≤ 0.001 µM
- EC50 [2]: 0.024 µM
- IC50 [3]: 0.008 µM
- IC50 [4]: ≤ 0.013 µM
- IC50 [5]: ≤ 0.001 µM
- IC50 [6]: ≤ 0.004 µM
- IC50 [7]: 0.18 µM
- IC50 [8]: 0.013 µM

Compound: CC(=O)N1CCN(Cc2cc(Nc3nc(C)cn4c(-c5cn[nH]c5)cnc34)sn2)CC1
- EC50 [2]: > 1 µM
- IC50 [4]: ≤ 0.013 µM
- IC50 [6]: ≤ 0.004 µM

Compound: CCNC(=O)N1CCN(Cc2cc(Nc3nc(C)cn4c(-c5cn[nH]c5)cnc34)sn2)CC1
- EC50 [2]: > 1 µM
- IC50 [4]: ≤ 0.013 µM
- IC50 [6]: ≤ 0.004 µM

Compound: Cc1cn2c(-c3cn[nH]c3)cnc2c(Nc2cc(CN3CCN(S(C)(=O)=O)CC3)ns2)n1
- EC50 [2]: > 0.5 µM
- IC50 [4]: ≤ 0.013 µM
- IC50 [6]: ≤ 0.004 µM

Compound: Cc1cn2c(-c3cn[nH]c3)cnc2c(Nc2cc(CN3C[C@@H](C)O[C@@H](C)C3)ns2)n1
- EC50 [2]: 0.082 µM
- IC50 [4]: ≤ 0.013 µM
- AUC(0-t) at 6 h [9]: 7.3 µM·h
- IC50 [6]: ≤ 0.004 µM

Compound: Cc1cn2c(-c3cn[nH]c3)cnc2c(Nc2cc(CN3CCOC(C)(C)C3)ns2)n1
- EC50 [2]: 0.25 µM
- IC50 [4]: ≤ 0.013 µM
- IC50 [6]: ≤ 0.004 µM

Compound: Cc1cn2c(-c3cn[nH]c3)cnc2c(Nc2cc([C@@H](C)N3C[C@@H](C)O[C@@H](C)C3)ns2)n1
- IC50 [1]: 0.51 µM
- bioavailability [10]: 72%
- AUC(0-inf) [11]: 5.6 µM·h
- EC50 [2]: 0.028 µM
- Vdss [12]: 12 L/kg
- solubility [13]: 4660 µg/mL (≈ 10.6 mM)
- IC50 [3]: 1.8 µM
- inhibition in vivo at 45 mg/kg [14]: 41%
- F [15]: 50%
- AUC(0-inf) [16]: 57.7 µM·h
- IC50 [17]: > 0.01 µM
- inhibition in vivo at 67.5 mg/kg [18]: 67%
- IC50 [4]: ≤ 0.013 µM
- EC50 [19]: 0.02 µM
- IC50 [5]: 0.71 µM
- inhibition in vivo at 90 mg/kg [20]: 79%
- Vd [21]: 1.6 L/kg
- TGI [22]: Dose-dependent effect
- AUC(0-inf) [23]: 38.8 µM·h
- AUC(0-t) at 6 h [9]: 4.6 µM·h
- clearance [24]: 10 mL/min/kg
- IC50 [6]: ≤ 0.004 µM
- AUC [25]: 3.4 µM·h
- bioavailability [26]: 92%
- EC50 [27]: 0.019 µM
- Vd [28]: 1.5 L/kg
- AUC [29]: 2.2 µM·h
- t1/2 [30]: 4.8 h
- clearance [31]: 20 mL/min/kg
- half-life [32]: 3.9 h
- half-life [33]: 5 h
- AUC(0-inf) [34]: 86.4 µM·h
- IC50 [7]: 0.33 µM
- IC50 [35]: > 0.01 µM
- IC50 [8]: 0.14 µM

Compound: CCC(c1cc(Nc2nc(C)cn3c(-c4cn[nH]c4)cnc23)sn1)N1CCOCC1 (racemic)
- EC50 [2]: 0.049 µM
- IC50 [4]: ≤ 0.013 µM
- AUC(0-t) at 6 h [9]: 0.5 µM·h
- IC50 [6]: ≤ 0.004 µM

Compound: Cc1cn2c(-c3cn[nH]c3)cnc2c(Nc2cc(CN3CCCCC3(C)C)ns2)n1
- IC50 [1]: 0.045 µM
- EC50 [2]: 0.014 µM
- IC50 [4]: ≤ 0.013 µM
- AUC(0-t) at 6 h [9]: 0.5 µM·h
- IC50 [6]: ≤ 0.004 µM

Compound: Cc1cn2c(-c3cn[nH]c3)cnc2c(Nc2cc(CN3C[C@H]4CC[C@@H](C3)O4)ns2)n1
- EC50 [2]: 0.267 µM
- IC50 [4]: ≤ 0.013 µM
- AUC(0-t) at 6 h [9]: 0.4 µM·h
- IC50 [6]: ≤ 0.004 µM

Compound: Cc1cn2c(-c3cn[nH]c3)cnc2c(Nc2cc(CN3CCOCC34CCC4)ns2)n1
- EC50 [2]: 0.197 µM
- IC50 [4]: ≤ 0.013 µM
- AUC(0-t) at 6 h [9]: 0.4 µM·h
- IC50 [6]: ≤ 0.004 µM

Compound: CCOCC(c1cc(Nc2nc(C)cn3c(-c4cn[nH]c4)cnc23)sn1)N1CCOCC1 (racemic)
- EC50 [2]: 0.281 µM
- IC50 [4]: ≤ 0.013 µM
- IC50 [6]: ≤ 0.004 µM

Compound: Cc1cn2c(-c3cn[nH]c3)cnc2c(Nc2cc(CN3CCN(C)CC3=O)ns2)n1
- EC50 [2]: > 1 µM
- IC50 [4]: ≤ 0.013 µM
- IC50 [6]: ≤ 0.004 µM

Compound: Cc1cn2c(-c3cn[nH]c3)cnc2c(Nc2cc(CN3CCN(C)CC3)ns2)n1
- EC50 [2]: 0.412 µM
- IC50 [4]: ≤ 0.013 µM
- IC50 [6]: ≤ 0.004 µM

Compound: Cc1cn2c(-c3cn[nH]c3)cnc2c(Nc2cc(CN3C[C@H](C)OC[C@@H]3C)ns2)n1
- EC50 [2]: 0.256 µM
- IC50 [4]: ≤ 0.013 µM
- AUC(0-t) at 6 h [9]: 3.9 µM·h
- IC50 [6]: ≤ 0.004 µM
